Laboratory results: patent US20210115104A1, “AMYLIN ANALOGUES” (Zealand Pharma A/S, priority 2015, published 2021)
*1 amine or outer side, *2 acyl side, *3 side chain or, on linkers, in order; H or OH if unused. Where a SMILES comes first, the peptide text is derived from it. Bridges are numbered along the chain shown (N, C = ends). [ ]: non-standard residue; d: D form. The star is where a group is joined. C20 diacid = O=C(O)CCCCCCCCCCCCCCCCCCC(=O)*; γGlu = O=C(O)[C@H](CCC(=O)[*:2])N[*:1]; Hyp = O=C(O)[C@@H]1C[C@@H](O)CN1; NMeI = CC[C@H](C)[C@H](NC)C(=O)O; Aad = N[C@@H](CCCC(=O)O)C(=O)O; Sar = CNCC(=O)O

Key:
[1] = target: T1, human amylin receptor 3 (hAMYR3), hCTR2 co-expressed with hRAMP3 (Homo sapiens, UniProt O60896+P30988); assay: hAMYR3 cAMP assay (AlphaScreen) in COS7 cells; assay type: cell-based; conditions: cAMP induction, COS7 cells expressing hAMYR3; Table 1; read-out: hAMYR3 EC50
T1 construct: expressed in transfected cells
T1 sequence (P30988 25-474): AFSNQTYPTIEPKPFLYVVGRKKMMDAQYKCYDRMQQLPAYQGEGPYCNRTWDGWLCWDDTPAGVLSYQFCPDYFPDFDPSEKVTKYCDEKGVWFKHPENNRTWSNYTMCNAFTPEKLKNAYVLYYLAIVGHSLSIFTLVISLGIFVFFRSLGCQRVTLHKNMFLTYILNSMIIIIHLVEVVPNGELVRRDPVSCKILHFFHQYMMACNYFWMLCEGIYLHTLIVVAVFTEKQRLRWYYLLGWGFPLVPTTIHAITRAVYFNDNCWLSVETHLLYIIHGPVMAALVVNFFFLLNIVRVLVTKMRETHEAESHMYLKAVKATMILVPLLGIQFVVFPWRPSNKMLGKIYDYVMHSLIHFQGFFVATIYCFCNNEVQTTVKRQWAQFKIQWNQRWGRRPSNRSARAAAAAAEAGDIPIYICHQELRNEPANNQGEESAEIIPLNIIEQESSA
T1 sequence (O60896 24-148 partner): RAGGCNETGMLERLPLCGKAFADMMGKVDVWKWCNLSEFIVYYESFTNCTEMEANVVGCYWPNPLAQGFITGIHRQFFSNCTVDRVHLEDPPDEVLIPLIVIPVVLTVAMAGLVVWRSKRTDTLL
From the text: The cell line COS7, originating from African Green Monkey kidney fibroblast cells, was used for establishment of the stable cell lines described below. The COS7 cellular background was used due to it being RAMP naïve, and as such it provides the best available system for testing of the monomeric hCTR and different heterodimeric amylin receptor subtypes functionally generated by introduction of the individual RAMPs.
A cell line expressing the human amylin receptor 3 (hAMYR3) was generated in the COS7 cellular background as stable clones. In brief, hCTR2 (GI:4502547) and hRAMP3 (GI:118572586) were amplified by PCR using primers encoding terminal restriction sites for subcloning. The 5′-end primers additionally encoded a near Kozak consensus sequence to ensure efficient translation. The fidelity of the DNA encoding the receptor was confirmed by DNA sequencing. The PCR products encoding the receptor were subcloned into a proprietary tri-cistronic mammalian expression vector with RAMP3, hCTR2 and neomycin (G418) resistance marker. The mammalian expression vector encoding the receptor was transfected into COS7 cells by a standard liposome transfection method. 48 hours post-transfection, cells were seeded for limited dilution cloning and selected with 1 mg/ml G418 in the culture medium. After 3 weeks, surviving colonies of hAMY3R-expressing cells were picked, propagated and tested in the amylin efficacy assay as described in Example 3 below. The functional generation of the amylin receptor phenotype was verified in the efficacy assay by a left-shifted efficacy response to amylin relative to monomeric calcitonin receptor, and one hAMYR3-expressing clone was chosen for compound profiling.
In vitro activity of test peptides at the hCTR2 and hAMYR3 receptors was assessed by measuring the induction of cAMP following stimulation of the receptor using the AlphaScreen® cAMP Assay kit from Perkin-Elmer.
Briefly, COS7 cells expressing hCTR2 (see Example 2, above) were seeded at 30-40,000 cells per well in 96-well microtiter plates coated with 0.01% poly-L-lysine, and grown for 1 day in culture in 100 μl growth medium [DMEM, 10% FCS, Penicillin (100 IU/ml), Streptomycin (100 μg/ml)]. On the day of analysis, growth medium was removed and the cells were washed once with 200 μl Tyrode buffer [Tyrode's Salts (9.6 g/I), 10 mM HEPES, pH 7.4]. Cells were incubated in 100 μl Tyrode buffer containing increasing concentrations of test peptides, 100 µM IBMX and 0.1% casein for 15 min at 37° C. The reaction was stopped by carefully decanting off the compound/buffer medium and replacing it with lysis/detection buffer (80 μl 0.1% w/v BSA, 5 mM HEPES, 0.3% v/v Tween-20 in deionized water). After incubation at room temperature for 10 min., the cAMP content of the resulting cell lysate was estimated according to the AlphaScreen® cAMP Assay manufacturer's instructions. EC50 values were estimated by computer-aided curve fitting using the 4-parameter logistic (4PL) non-linear model.

[2] = target: T2, human calcitonin receptor (hCTR2) (Homo sapiens, UniProt P30988); assay: hCTR2 cAMP assay (AlphaScreen) in COS7 cells; assay type: cell-based; conditions: cAMP induction, COS7 cells expressing hCTR2; Table 1; read-out: hCTR2 EC50
T2 construct: expressed in transfected cells
T2 sequence (P30988 25-474): T1 sequence (P30988 25-474)
In short: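 Stable hCTR2 clone in RAMP-naïve COS7 cells stimulated 15 min at 37 °C with increasing peptide concentrations in Tyrode buffer pH 7.4 containing IBMX and 0.1% casein. cAMP in lysates measured by AlphaScreen; EC50 from 4-parameter logistic fit.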

Row | EC50 [1] [nM] | EC50 [2] [nM] | Compound
1 | 0.22 | 0.18 | CC[C@H](C)[C@@H](C(=O)N[C@@H](CC(C)C)C(=O)N[C@@H](CO)C(=O)N[C@@H](CO)C(=O)N[C@H](C(=O)N[C@@H](CCC(=O)O)C(=O)N[C@H](C(=O)NCC(=O)N[C@@H](CO)C(=O)N[C@@H](CC(N)=O)C(=O)N[C@H](C(=O)N1CCC[C@H]1C(N)=O)[C@@H](C)O)C(C)C)[C@@H](C)O)N(C)C(=O)[C@H](C)NC(=O)CN(C)C(=O)[C@H](Cc1ccccc1)NC(=O)[C@H](CO)NC(=O)[C@H](CO)NC(=O)[C@H](CCCNC(=N)N)NC(=O)[C@H](CCC(N)=O)NC(=O)[C@H](CC(C)C)NC(=O)[C@H](Cc1ccccc1)NC(=O)[C@H](Cc1c[nH]cn1)NC(=O)[C@H](C)NC(=O)[C@H](CC(C)C)NC(=O)[C@H](CCCNC(=N)N)NC(=O)[C@H](CCC(=O)O)NC(=O)[C@@H](NC(=O)[C@H](C)NC(=O)[C@@H]1CSSC[C@H](NC(=O)[C@H](CCCNC(=N)N)NC(=O)CC[C@H](NC(=O)CCCCCCCCCCCCCCCCCCC(=O)O)C(=O)O)C(=O)N[C@@H](CC(N)=O)C(=O)N[C@@H]([C@@H](C)O)C(=O)N[C@@H](C)C(=O)N[C@@H]([C@@H](C)O)C(=O)N1)[C@@H](C)O [Compound 62, [19CD]-isoGlu-R-C( )-NTAT-C( )-ATERLAHFLQRSSF-Gly(Me)-A-Ile(Me)-LSSTEVGSNTP-NH2] ({C20 diacid-γGlu}-RCNTATCATERLAHFLQRSSF[Sar]A[NMeI]LSSTEVGSNTP-NH2; disulfide 2-7)
2 | 0.29 | 0.32 | CC[C@H](C)[C@@H](C(=O)N[C@@H](CC(C)C)C(=O)N[C@@H](CO)C(=O)N[C@@H](CO)C(=O)N[C@H](C(=O)N[C@@H](CCC(=O)O)C(=O)N[C@H](C(=O)NCC(=O)N[C@@H](CO)C(=O)N[C@@H](CC(N)=O)C(=O)N[C@H](C(=O)N1C[C@H](O)C[C@H]1C(N)=O)[C@@H](C)O)C(C)C)[C@@H](C)O)N(C)C(=O)[C@H](C)NC(=O)CN(C)C(=O)[C@H](Cc1ccccc1)NC(=O)[C@H](CO)NC(=O)[C@H](CO)NC(=O)[C@H](CCCNC(=N)N)NC(=O)[C@H](CCC(N)=O)NC(=O)[C@H](CC(C)C)NC(=O)[C@H](Cc1ccccc1)NC(=O)[C@H](CC(=O)O)NC(=O)[C@H](C)NC(=O)[C@H](CC(C)C)NC(=O)[C@H](CCCNC(=N)N)NC(=O)[C@H](CCC(=O)O)NC(=O)[C@@H](NC(=O)[C@H](C)NC(=O)[C@@H]1CSSC[C@H](NC(=O)[C@H](CCCNC(=N)N)NC(=O)CC[C@H](NC(=O)CCCCCCCCCCCCCCCCCCC(=O)O)C(=O)O)C(=O)N[C@@H](CC(N)=O)C(=O)N[C@@H]([C@@H](C)O)C(=O)N[C@@H](C)C(=O)N[C@@H]([C@@H](C)O)C(=O)N1)[C@@H](C)O [Compound 68, [19CD]-isoGlu-R-C( )-NTAT-C( )-ATERLADFLQRSSF-Gly(Me)-A-Ile(Me)-LSSTEVGSNT-Hyp-NH2] ({C20 diacid-γGlu}-RCNTATCATERLADFLQRSSF[Sar]A[NMeI]LSSTEVGSNT[Hyp]-NH2; disulfide 2-7)
3 | 0.32 | 0.13 | CC[C@H](C)[C@@H](C(=O)N[C@@H](CC(C)C)C(=O)N[C@@H](CO)C(=O)N[C@@H](CO)C(=O)N[C@H](C(=O)N[C@@H](CCC(=O)O)C(=O)N[C@H](C(=O)NCC(=O)N[C@@H](CO)C(=O)N[C@H](C(=O)N[C@H](C(=O)N1C[C@H](O)C[C@H]1C(N)=O)[C@@H](C)O)[C@@H](C)O)C(C)C)[C@@H](C)O)N(C)C(=O)[C@H](C)NC(=O)CN(C)C(=O)[C@H](Cc1ccccc1)NC(=O)[C@H](CO)NC(=O)[C@H](CO)NC(=O)[C@H](CCCNC(=N)N)NC(=O)[C@H](CCC(N)=O)NC(=O)[C@H](CC(C)C)NC(=O)[C@H](Cc1ccccc1)NC(=O)[C@H](CC(=O)O)NC(=O)[C@H](C)NC(=O)[C@H](CC(C)C)NC(=O)[C@H](CCCNC(=N)N)NC(=O)[C@H](CCC(N)=O)NC(=O)[C@@H](NC(=O)[C@H](C)NC(=O)[C@@H]1CSSC[C@H](NC(=O)[C@H](CCCNC(=N)N)NC(=O)CC[C@H](NC(=O)CCCCCCCCCCCCCCCCCCC(=O)O)C(=O)O)C(=O)N[C@@H](CC(N)=O)C(=O)N[C@@H]([C@@H](C)O)C(=O)N[C@@H](C)C(=O)N[C@@H]([C@@H](C)O)C(=O)N1)[C@@H](C)O [Compound 83, [19CD]-isoGlu-R-C( )-NTAT-C( )-ATQRLADFLQRSSF-Gly(Me)-A-Ile(Me)-LSSTEVGSTT-Hyp-NH2] ({C20 diacid-γGlu}-RCNTATCATQRLADFLQRSSF[Sar]A[NMeI]LSSTEVGSTT[Hyp]-NH2; disulfide 2-7)
4 | 0.19 | 0.12 | CC[C@H](C)[C@@H](C(=O)N[C@@H](CC(C)C)C(=O)N[C@@H](CO)C(=O)N[C@@H](CO)C(=O)N[C@H](C(=O)N[C@@H](CCC(=O)O)C(=O)N[C@H](C(=O)NCC(=O)N[C@@H](CO)C(=O)N[C@@H](Cc1ccccc1)C(=O)N[C@H](C(=O)N1CCC[C@H]1C(N)=O)[C@@H](C)O)C(C)C)[C@@H](C)O)N(C)C(=O)[C@H](C)NC(=O)CN(C)C(=O)[C@H](Cc1ccccc1)NC(=O)[C@H](CO)NC(=O)[C@H](CO)NC(=O)[C@H](CCCNC(=N)N)NC(=O)[C@H](CC(N)=O)NC(=O)[C@H](CC(C)C)NC(=O)[C@H](Cc1ccccc1)NC(=O)[C@H](Cc1c[nH]cn1)NC(=O)[C@H](C)NC(=O)[C@H](CC(C)C)NC(=O)[C@H](CCCNC(=N)N)NC(=O)[C@H](CCC(=O)O)NC(=O)[C@@H](NC(=O)[C@H](C)NC(=O)[C@@H]1CSSC[C@H](NC(=O)[C@H](CCCNC(=N)N)NC(=O)CC[C@H](NC(=O)CCCCCCCCCCCCCCCCCCC(=O)O)C(=O)O)C(=O)NCC(=O)N[C@@H]([C@@H](C)O)C(=O)N[C@@H](C)C(=O)N[C@@H]([C@@H](C)O)C(=O)N1)[C@@H](C)O [Compound 40, [19CD]-isoGlu-R-C( )-GTAT-C( )-ATERLAHFLNRSSF-Gly(Me)-A-Ile(Me)-LSSTEVGSFTP-NH2] ({C20 diacid-γGlu}-RCGTATCATERLAHFLNRSSF[Sar]A[NMeI]LSSTEVGSFTP-NH2; disulfide 2-7)
5 | 0.26 | 0.36 | CC[C@H](C)[C@@H](C(=O)N[C@@H](CC(C)C)C(=O)N[C@@H](CO)C(=O)N[C@@H](CO)C(=O)N[C@H](C(=O)N[C@@H](CCC(=O)O)C(=O)N[C@H](C(=O)NCC(=O)N[C@@H](CO)C(=O)N[C@@H](CCCC(=O)O)C(=O)N[C@H](C(=O)N1C[C@H](O)C[C@H]1C(N)=O)[C@@H](C)O)C(C)C)[C@@H](C)O)N(C)C(=O)[C@H](C)NC(=O)CN(C)C(=O)[C@H](Cc1ccccc1)NC(=O)[C@H](CO)NC(=O)[C@H](CO)NC(=O)[C@H](CCCNC(=N)N)NC(=O)[C@H](CCC(N)=O)NC(=O)[C@H](CC(C)C)NC(=O)[C@H](Cc1ccccc1)NC(=O)[C@H](Cc1c[nH]cn1)NC(=O)[C@H](C)NC(=O)[C@H](CC(C)C)NC(=O)[C@H](CCCNC(=N)N)NC(=O)[C@H](CCC(N)=O)NC(=O)[C@@H](NC(=O)[C@H](C)NC(=O)[C@@H]1CSSC[C@H](NC(=O)[C@H](CCCNC(=N)N)NC(=O)CC[C@H](NC(=O)CCCCCCCCCCCCCCCCCCC(=O)O)C(=O)O)C(=O)N[C@@H](CC(N)=O)C(=O)N[C@@H]([C@@H](C)O)C(=O)N[C@@H](C)C(=O)N[C@@H]([C@@H](C)O)C(=O)N1)[C@@H](C)O [Compound 75, [19CD]-isoGlu-R-C( )-NTAT-C( )-ATQRLAHFLQRSSF-Gly(Me)-A-Ile(Me)-LSSTEVGS-Aad-T-Hyp-NH2] ({C20 diacid-γGlu}-RCNTATCATQRLAHFLQRSSF[Sar]A[NMeI]LSSTEVGS[Aad]T[Hyp]-NH2; disulfide 2-7)
